Values quoted from earlier work as cited in patent publication US20100190739A1, “Rapidly Dissolving Vitamin Formulation and Methods of Using the Same” (FLEMING AND COMPANY, PHARMACEUTICALS, priority 2008, published 2010).

Assays:
[1] = Institute of Medicine
[2] = not given; remark: listed apart in the source

## Cc1ncc(C[n+]2csc(CCO)c2C)c(N)n1 [Example B1, thiamine]
Doses as high as, taken for extended periods of time
  Dose with no evidence of oral toxicity: 200 mg

## cobalamin [Example B12]
In vivo
  Level at which toxicity has not been demonstrated: 10,000 × the recommended daily allowance (RDA)

## [Cr] [Chromium, chromium]
Some evidence
  Doses that can cause adverse reactions: above 250 μg

## O=C(O)c1cccnc1 [niacin]
[1]
  Tolerable upper limit: 35 mg/day

## [Se] [Selenium, selenium]
[1]
  Tolerable upper limit: 0.4 mg/day

## [Mo] [Molybdenum, molybdenum]
In vivo
  Intake causing significant losses of copper: above 500 μg/day

## [Mn+2] [Manganese, manganese]
[1]
  Tolerable upper limit: 11 mg/day
[2]
  Fraction of dietary intake absorbed: 3-5%

## [Zn] [Zinc, zinc]
[1]
  Tolerable upper limit: 40 mg/day
In vivo
  Doses at which acute toxicity can occur (as low as): ≥ 30 mg/day
  Doses at which acute toxicity is more common: exceeding 100 mg/day

## Cc1ncc(CO)c(CO)c1O [Example B6, pyridoxine]
[1]
  Tolerable upper limit: 100 mg/day
Long term study
  Dose showing potential damage to sensory nerves: 200 mg/day
